Test results published in patent US20140037604A1, “NUTRITIONAL COMPOSITIONS COMPRISING ALPHA-HYDROXYISOCAPROIC ACID” (NESTEC S.A., priority 2011, published 2014).
“Also recorded” adds a separate entry of the source. Read-outs that look alike come from different tables or passages of the source. Each block holds one compound with its values, some of them ahead of it.

Legend:
[1] = system: protein synthesis in gastrocnemius, liver and heart; assay: In vivo rate of tissue protein synthesis, flooding-dose technique with [3H]-L-phenylalanine; design: species or system male Wistar rats; conditions: for In-vivo-determined tissue protein synthesis: Liver / In-vivo-determined tissue protein synthesis: Heart: freely fed rats; for In-vivo-determined tissue protein synthesis: Heart: no unit in table (text b163: nmol Phe/h/mg protein); for Immobilization (casting)-induced decrease in muscle protein synthesis: gastrocnemius, 7 days of immobilization
Experimental: (§1) Water was provided ad libitum.
The in vivo rate of protein synthesis in gastrocnemius, liver and heart (ventricle only) was determined using the flooding-dose technique, exactly as described (Vary T C and Lang C H, Assessing effects of alcohol consumption on protein synthesis in striated muscles. Methods Mol Biol 447: 343-355, 2008). A P-50 catheter was placed in the left carotid artery for the withdrawal of blood. Rats were injected intravenously (IV) with [^3H]-L-phenylalanine (Phe; 150 mM, 30 μCi/ml; 1 ml/100 g body weight) and blood was collected 15 min later for determining the plasma Phe concentration and radioactivity. Thereafter, tissues were rapidly excised and a portion freeze-clamped and then stored at −70° C. The rate of protein synthesis was calculated by dividing the amount of radioactivity incorporated into protein by the plasma Phe specific radioactivity. The specific radioactivity of the plasma Phe was measured by high performance liquid chromatography (HPLC) analysis of supernatant from trichloroacetic acid (TCA) extracts of plasma. In addition, samples of fresh muscle were homogenized for Western blot and analysis of selected proteins and another piece of tissue used for qRT-PCR, as described below.

Hematological profile = format: in vivo, male Wistar rats; conditions: means ± SEM; for Hematocrit / Hemoglobin / Lymphocytes / MCH / MCV / Neutrophils / Platelets / RBC / WBC: blood; for Protime (prothrombin time): citrated blood
Experimental: (§2) Blood was collected from the arterial catheter while rats were anesthetized and prior to injection of [^3H]-Phe. Blood was dispensed to determine standard hematological and biochemical endpoints. For hematology analyses, 250-500 μl of blood was dispensed to tubes containing EDTA (BD No. 365974; Fisher Scientific). Hematology analyses (Heska CBC-Diff Hematology Analyzer, Loveland, Colo.) included: red and white blood cell counts, hematocrit, hemoglobin, platelets, and differential leukocyte counts. Reticulocytes were counted manually using methylene blue stain. In addition, 900 μl blood was dispensed to a tube containing 100 μl of 0.109 M sodium citrate (BD Medical No. 363083; Fisher Scientific) for measurement of prothrombin time (BBL Fibrometer System, Cockeysville, Md.). The remaining blood was dispensed to a silicone-coated collection tube (BD No. 366381; Fisher Scientific) and allowed to clot. Clotted blood samples were centrifuged in a Beckman Coulter Allegra X-12R centrifuge at 3500 rpm for 5 min at 4° C., and the serum was collected and stored. Biochemical analyses on serum was performed on a Cobas Mira Plus Chemistry Analyzer (Diamond Diagnostics, Holliston, Mass.) and included: total bilirubin, glucose, aspartate aminotransferase, alanine aminotransferase, lactate dehydrogenase, albumin, calcium, creatinine, urea, phosphate, total cholesterol, chloride, and total protein. Serum sodium and potassium were analyzed by flame photometer (IL940; Instrumentation Laboratory, Lexington, Mass.). Triglycerides and free fatty acids (FFAs) were determined colorimetrically (Abcam, Cambridge, Mass.; Wako Diagnostics, Richmond, Va., respectively). Insulin was determined by ELISA (Alpco diagnostics, Salem, N.H.). The homeostatic model assessment of insulin resistance (HOMA-IR) was calculated to provide an estimate of whole-body insulin resistance (Turner R C, Holman R R, Matthews D, Hockaday T D and Peto J. Insulin deficiency and insulin resistance interaction in diabetes: estimation of their relative contribution by feedback analysis from basal plasma insulin and glucose concentrations. Metabolism 28: 1086-1096,1979).

[2] = Blood chemistry profile, metabolic substrates and hormone (serum); format: in vivo, male Wistar rats; conditions: for Insulin: ELISA; for Insulin / HOMA-IR (homeostatic model assessment of insulin resistance) / Triglycerides / ALT / AST / Albumin / BUN / Bilirubin, total / Calcium / Chloride / Cholesterol / Creatinine / Glucose / LDH / Phosphorous / Potassium / Protein, total / Sodium: means ± SEM; for HOMA-IR (homeostatic model assessment of insulin resistance): calculated from insulin and glucose; for ALT / AST / Albumin / BUN / Bilirubin, total / Calcium / Chloride / Cholesterol / Creatinine / Glucose / LDH / Phosphorous / Potassium / Protein, total / Sodium: serum; for Sodium: all studies combined
Experimental: as §2

[3] = system: gastrocnemius of hindlimb-immobilized rats; assay: Muscle atrophy and recovery after unilateral hindlimb immobilization (gastrocnemius weight); format: in vivo, male Wistar rats; conditions: for Muscle regrowth (gastrocnemius mass) 7 days after removal of the cast: 7 days immobilization + 7 days recovery, compared to control diet; for Decrease in gastrocnemius mass by immobilization: 7 days of cast immobilization, versus contralateral uncasted limb; for Mass of previously immobilized gastrocnemius compared to contralateral uncasted muscle: recovery day 14
Excerpt: as §1

[4] = Organ weights of rats fed supplemented diets
Excerpt: (§3) Animal protocols. The experiments described herein were broadly organized into two experimental series. Both studies used male Wistar rats (Charles River Breeding Laboratories, Cambridge, Mass.) which acclimated for 1 week in a controlled environment. Rats were shipped at 350-375 g and were approximately 12 wks of age. Water and standard rat chow were provide ad libitum.
(§4) The following custom diets were commercially prepared (Dytes, Bethlehem, Pa.): control diet (AIN93M), or isocaloric, isonitrogenous diets supplemented with α-hydroxy-isocaproic acid (HICA) or leucine (Leu) (Table 1). […] Therefore, animals were provided the dietary intervention for a period of 6 days prior to hindlimb immobilization.
(§5) The foot was positioned in plantar-flexion to induce maximal atrophy of the gastrocnemius and rats received 10 ml of 0.9% warmed (37° C.) sterile saline for resuscitation. […] Consequently, the contralateral limb served as the control in all subsequent experiments. After casting, rats were housed individually and were continued to be pair-fed for a period of 7 days. Water was provided ad libitum. On day 7 after casting, rats were anesthetized with pentobarbital and the cast atraumatically and rapidly (<2 min) removed (Stryker Instruments, Kalamzoo, Mich.).

[5] = rat, in vivo
Excerpt: as §3, §4, §5

[6] = system: intestinal mammalian target of rapamycin (mTOR); conditions: piglet stressed with LPS; cited from earlier work
[7] = means ± SEM, all studies combined, no unit in table
[8] = means ± SEM, all studies combined
[9] = supplemented diet, means ± SEM, all studies combined

Hematocrit (Hematological profile): 40 ± 1%
Hemoglobin (Hematological profile): 15.2 ± 0.5 g/dL
Lymphocytes (Hematological profile): 70 ± 2%
MCH (Hematological profile): 17.9 ± 0.1 pg
MCV (Hematological profile): 47 ± 1 fL
Neutrophils (Hematological profile): 24 ± 2%
Platelets (Hematological profile): 1207 ± 60 103/μl
RBC (Hematological profile): 8.49 ± 0.31 106/μl
WBC (Hematological profile): 2.5 ± 0.2 103/μl
Protime (prothrombin time) (Hematological profile): 19 ± 1 s
Insulin [2]: 1.90 ± 0.15 a ng/ml
HOMA-IR (homeostatic model assessment of insulin resistance) [2]: 27.1 ± 3.2 a
Triglycerides [2]: 609 ± 51 µmol/L
Markers of renal function (creatinine and BUN) compared to control values ([2]; rat, in vivo): generally unaffected
Serum insulin concentration compared to control rats ([2]; rat, in vivo): did not differ
Albumin [2]: 3.31 ± 0.04 g/dL
BUN [2]: 16.2 ± 0.6a mg/dL
Bilirubin, total [2]: 0.5 ± 0.04 mg/dL
Calcium [2]: 9.5 ± 0.1 mg/dL
Chloride [2]: 101 ± 1 mmol/L
Cholesterol [2]: 62 ± 3 mg/dL
Creatinine [2]: 0.3 ± 0.02 mg/dL
Glucose [2]: 223 ± 11 mg/dL
LDH [2]: 232 ± 23 U/L
Phosphorous [2]: 5.8 ± 0.2a mg/dL
Potassium [2]: 4.9 ± 0.1a mmol/L
Protein, total [2]: 5.0 ± 0.1 g/dL
Sodium [2]: 141 ± 1 mmol/L
Deleterious effects on whole-body and tissue-specific metabolic and hematological parameters ([2]; supplementation for up to 3 wks): no apparent deleterious effects
Organ weight: Liver ([4]; diet with α-HICA 50.4 g/kg or leucine 50 g/kg, means ± SEM, data combined from all studies): 12.00 ± 0.35 g
Kidney weight compared between diets ([4]; rat, in vivo): did not differ
Organ weight: Adrenal [4, 9]: 403 ± 16 mg
Organ weight: Kidney [4, 9]: 1.22 ± 0.03 g
Organ weight: Spleen [4, 9]: 960 ± 37 mg
Organ weight: Testes [4, 9]: 1.82 ± 0.03 g
Organ weight: Heart ([4]; ventricle only, supplemented diet, means ± SEM, all studies combined): 1.13 ± 0.02 g
Compound: CC(C)CC(O)C(=O)O (stereo not drawn) [HICA, α-hydroxy-isocaproic acid]
Increment in protein synthesis in the previously immobilized muscle ([1]; after a 7-day recovery period, not statistically significant versus control-fed rats): 0.77±0.17 nmol Phe/h/mg protein
Protein synthesis in the previously immobilized muscle compared to contralateral uncasted muscle ([1]; day 14 of recovery): still increased
Increment in muscle protein synthesis compared to other groups ([1]; day 14 of recovery, failed to achieve statistical significance): tended to be increased
In-vivo-determined tissue protein synthesis: Liver [1, 7]: 24.41 ± 0.90
In-vivo-determined tissue protein synthesis: Heart [1, 8]: 2.76 ± 0.11
Immobilization (casting)-induced decrease in muscle protein synthesis [1]: no immobilization-induced decrease
Immobilization (casting)-induced decrease in muscle protein synthesis ([1]; listed as αHICA): prevented the casting-induced decrease in muscle protein synthesis
In-vivo-determined tissue protein synthesis: GAstrocnemius (control) ([1]; uncasted control muscle, means ± SEM, all studies combined, no unit in table): 1.26 ± 0.04
Basal rate of protein synthesis in uncasted muscle, lower than control-fed rats ([1]; uncasted gastrocnemius): 10%
ALT [2]: 24 ± 1 U/L
AST [2]: 74 ± 4 U/L
Muscle regrowth (gastrocnemius mass) 7 days after removal of the cast [3]: not altered
Decrease in gastrocnemius mass by immobilization [3]: 0.61 ± 0.09 g
Mass of previously immobilized gastrocnemius compared to contralateral uncasted muscle [3]: did not differ; also recorded: complete recovery of mass
Prevention or amelioration of the reduction in muscle mass produced by disuse ([3]; unilateral hindlimb immobilization): failed to prevent or ameliorate the accompanying reduction in muscle mass

Hematocrit (Hematological profile): 41 ± 1%
Hemoglobin (Hematological profile): 15.7 ± 0.3 g/dL
Lymphocytes (Hematological profile): 73 ± 3%
MCH (Hematological profile): 17.9 ± 0.2 pg
MCV (Hematological profile): 47 ± 1 fL
Neutrophils (Hematological profile): 23 ± 3%
Platelets (Hematological profile): 1206 ± 56 103/μl
RBC (Hematological profile): 8.98 ± 0.28 106/μl
WBC (Hematological profile): 2.7 ± 0.2 103/μl
Protime (prothrombin time) (Hematological profile): 18 ± 1 s
Insulin [2]: 3.64 ± 0.32 c ng/ml
HOMA-IR (homeostatic model assessment of insulin resistance) [2]: 47.7 ± 4.6b
Triglycerides [2]: 667 ± 52 µmol/L
HOMA-IR compared to control rats or those fed a HICA-containing diet ([2]; rat, in vivo): significantly greater
Markers of renal function (creatinine and BUN) compared to control values ([2]; rat, in vivo): generally unaffected
Serum phosphorus concentration, elevation compared to control values ([2]; rat, in vivo): 18%
Serum potassium concentration compared to control- or HICA-fed rats ([2]; rat, in vivo): lower
Albumin [2]: 3.42 ± 0.03 g/dL
BUN [2]: 16.2 ± 0.5a mg/dL
Bilirubin, total [2]: 0.3 ± 0.02 mg/dL
Calcium [2]: 9.6 ± 0.1 mg/dL
Chloride [2]: 100 ± 1 mmol/L
Cholesterol [2]: 63 ± 4 mg/dL
Creatinine [2]: 0.3 ± 0.01 mg/dL
Glucose [2]: 214 ± 8 mg/dL
LDH [2]: 169 ± 21 U/L
Phosphorous [2]: 7.0 ± 0.2b mg/dL
Potassium [2]: 4.1 ± 0.1b mmol/L
Protein, total [2]: 5.0 ± 0.1 g/dL
Sodium [2]: 140 ± 1 mmol/L
Kidney weight compared between diets [5]: did not differ
Compound: CC(C)C[C@H](N)C(=O)O [Leucine, leucine]
Protein synthesis in the previously immobilized muscle compared to contralateral uncasted muscle ([1]; day 14 of recovery, listed as Leu): not different from the uncasted muscle; also recorded: returned to basal values
In-vivo-determined tissue protein synthesis: Liver [1, 7]: 22.51 ± 0.88
In-vivo-determined tissue protein synthesis: Heart [1, 8]: 2.93 ± 0.11
Immobilization (casting)-induced decrease in muscle protein synthesis ([1]; listed as Leu): decreased protein synthesis to the same extent; also recorded: failed to prevent the casting-induced decrease in protein synthesis
Protein synthesis in the uncasted muscle compared to control-fed rats ([1]; uncasted gastrocnemius): did not differ
ALT [2]: 24 ± 1 U/L
AST [2]: 68 ± 4 U/L
Muscle regrowth (gastrocnemius mass) 7 days after removal of the cast [3]: not altered
Decrease in gastrocnemius mass by immobilization [3]: 0.57 ± 0.08 g
Mass of previously immobilized gastrocnemius compared to contralateral uncasted muscle ([3]; listed as Leu): a reduction in mass of the previously immobilized muscle was still detected; also recorded: partial recovery of gastrocnemius mass

Compound: O=C(O)CCC(=O)C(=O)O [AKG, α-ketoglutarate]
Crypt depth [6]: reduced crypt depth
Phosphorylation of intestinal mTOR [6]: increased phosphorylation
Villous height [6]: increased villous height
